{
  "source": "paper PMC5267425",
  "about": "“Identification of small molecule modulators of HIV-1 Tat and Rev protein accumulation” (Retrovirology, 2017)",
  "tested_on": "alternative splicing of host transcripts in HeLa rtTA HIV∆Mls cells",
  "assay": "RT-PCR of host alternative splicing events (PSI), capillary electrophoresis",
  "format": "cell-based",
  "parameters": "PSI ZNF827_1 / PSI RAN_1 / PSI SEC24B_1 / PSI SMN2_1 / PSI TRIM37_1 / PSI RPS24_1 / PSI PDCL_1 / PSI SMN2_2 / PSI SETD5_1 / PSI RAI14_1 / PSI TPM1_1 / PSI SPAG9_1 / PSI POLDIP3_1 / PSI SRPK2_1 / PSI POMT1_1: concentration or dose not given beside the values",
  "description": "To assess the effect of compounds on expression/alternative splicing of cellular RNA, two approaches were used. For both, total RNA was prepared from DMSO or compound-treated cells. In the first assay, samples were assayed by medium throughput RT-PCR to determine the inclusion levels of alternatively spliced exons and splice sites located in 73 selected events. 73 primer sets containing a fluorescently (5-FAM) labeled primer for each, were used in RT-PCR. PCR products generated were denatured in formamide and quantified using ABI Prism capillary sequencer (Life Technologies). The fragment analysis was performed on the PeakScanner software (Life Technologies) in batch mode and automated using custom scripts written in Python. The inclusion level of each exon was calculated as the amount of transcripts carrying the alternative exon relative to the total amount of all transcripts detected in the PCR reaction and results are summarized for compound-treatment in comparison to DMSO treatment. In the second assay, extracted RNA was processed using the Illumina TruSeq RNA Sample Preparation Kit (Illumina) according to the manufacturer’s instructions. The cDNA library generated was validated (passed quality control on a Bioanalyzer 1000 DNA chip (Agilent)), normalized and pooled for cluster generation. cDNA libraries were sequenced on the Illumina HiSeq 2500 (paired-end, 125 bp) with version 4 chemistry following manufacturer’s protocols. The full human genome and transcriptomic sequences were downloaded from the UCSC Genome Browser (genome.ucsc.edu) database and Ensembl (www.ensembl.org), respectively, as described by Irimia et al.. Exon annotations and genomic coordinates for alternative splicing (AS) analysis were derived from tables downloaded from the UCSC Genome Browser database. To determine gene expression (GE) or alternative splicing (AS) changes in an unbiased way, the effective number of unique mappable positions in each transcript (i.e. the effective length) was determined by aligning sequences with unique transcriptomic alignment to the human genome using Bowtie. Reads with one unique genomic alignment were then aligned against the canonical transcriptome and, for each transcript, the number of reads with one unique transcriptomic alignment were counted. The expression level of genes was quantified as corrected ‘reads per kilobase of exon model per million mapped reads’ (cRPKM), a widely used metric to estimate gene expression levels. The expression cutoff was 0.5 cRPKM, corresponding to the transcript of the gene being present if there were ≥10 reads that mapped uniquely to a single genomic locus. Approximately 19,847 Ensembl annotated protein-coding genes were compared to create a gene list of differentially expressed genes. Genes were considered differentially expressed if fold changes in cRPKM was ≥2 in compound-treated versus DMSO-treated samples.",
  "note": "Values joined by “and” are separate entries in the source; they are usually repeats but may differ in a detail not shown here. Equal entries are not always repeated.",
  "data": [
    {"smiles": "COc1ccc(C=NNC(=O)c2ccccc2O)cc1O", "note": "[Compound 892, 2-hydroxy-N′-(3-hydroxy-4-methoxybenzylidene)benzohydrazide]", "values": [
      {"measurement": "DPSI EIF4A2_1", "setting": "chr7:187988792-187988899, mean PSI 5193892 minus DMSO, n=3, P Value 0.014", "result": 13.67, "unit": "%"},
      {"measurement": "PSI EIF4A2_1", "setting": "chr7:187988899-187988904, HeLa rtTA-HIV-DMls cells, replicates 25, 26, 27", "result": "22.00 and 26.00 and 31.00"},
      {"measurement": "DPSI EIF4A2_1", "setting": "chr7:187988899-187988904, mean PSI 5193892 minus DMSO, n=3, P Value 0.035", "result": 8.33, "unit": "%"},
      {"measurement": "PSI PDCL_1", "setting": "chr9:124628716-124628892, HeLa rtTA-HIV-DMls cells, replicates 25, 26, 27", "result": "90.00 and 91.00 and 93.00"},
      {"measurement": "DPSI PDCL_1", "setting": "chr9:124628716-124628892, mean PSI 5193892 minus DMSO, n=3, P Value 0.152", "result": 1.67, "unit": "%"},
      {"measurement": "PSI GM130_1", "setting": "chr9:130069293-130069374, HeLa rtTA-HIV-DMls cells, replicates 25, 26, 27", "result": "23.00 and 18.00 and 15.00"},
      {"measurement": "DPSI GM130_1", "setting": "chr9:130069293-130069374, mean PSI 5193892 minus DMSO, n=3, P Value 0.007", "result": -14.33, "unit": "%"},
      {"measurement": "PSI POMT1_1", "setting": "chr9:133368281-133368521, HeLa rtTA-HIV-DMls cells, replicates 25, 26, 27", "result": "50.00 and 37.00 and 28.00"},
      {"measurement": "DPSI POMT1_1", "setting": "chr9:133368281-133368521, mean PSI 5193892 minus DMSO, n=3, P Value 0.626", "result": -4.00, "unit": "%"},
      {"measurement": "PSI POMT1_1", "setting": "chr9:133371321-133371428, HeLa rtTA-HIV-DMls cells, replicates 25, 26, 27", "result": "95.00 and 94.00 and 63.00"},
      {"measurement": "DPSI POMT1_1", "setting": "chr9:133371321-133371428, mean PSI 5193892 minus DMSO, n=3, P Value 0.627", "result": -5.67, "unit": "%"},
      {"measurement": "PSI RPS24_1", "setting": "chr10:79467729-79467746, HeLa rtTA-HIV-DMls cells, replicates 25, 26, 27", "result": "8.00 and 13.00 and 12.00"},
      {"measurement": "DPSI RPS24_1", "setting": "chr10:79467729-79467746, mean PSI 5193892 minus DMSO, n=3, P Value 0.079", "result": 3.67, "unit": "%"},
      {"measurement": "PSI ADD3_1", "setting": "chr10:111882053-111882148, HeLa rtTA-HIV-DMls cells, replicates 25, 26, 27", "result": "42.00 and 60.00 and 62.00"},
      {"measurement": "DPSI ADD3_1", "setting": "chr10:111882053-111882148, mean PSI 5193892 minus DMSO, n=3, P Value 0.701", "result": 3.33, "unit": "%"},
      {"measurement": "PSI CTNND1_1", "setting": "chr11:57318058-57318129, HeLa rtTA-HIV-DMls cells, replicates 25, 26, 27", "result": "82.00 and 76.00 and 100.00"},
      {"measurement": "PSI APLP2_1", "setting": "chr11:129498717-129498884, HeLa rtTA-HIV-DMls cells, replicates 25, 26, 27", "result": "15.00 and 18.00 and 19.00"},
      {"measurement": "DPSI APLP2_1", "setting": "chr11:129498717-129498884, mean PSI 5193892 minus DMSO, n=3, P Value 0.009", "result": -6.00, "unit": "%"},
      {"measurement": "PSI ERC1_1", "setting": "chr12:1091641-1091725, HeLa rtTA-HIV-DMls cells, replicates 25, 26, 27", "result": "36.00 and 55.00 and 52.00"},
      {"measurement": "PSI FGFR1OP2_1", "setting": "chr12:27004715-27004828, HeLa rtTA-HIV-DMls cells, replicates 25, 26, 27", "result": "22.00 and 15.00 (2×)"},
      {"measurement": "DPSI FGFR1OP2_1", "setting": "chr12:27004715-27004828, mean PSI 5193892 minus DMSO, n=3, P Value 0.030", "result": -11.67, "unit": "%"},
      {"measurement": "PSI DNM1L_1", "setting": "chr12:32782066-32782143, HeLa rtTA-HIV-DMls cells, replicates 25, 26, 27", "result": "24.00 and 37.00 and 39.00"},
      {"measurement": "PSI DNM1L_1", "setting": "chr12:32782465-32782497, HeLa rtTA-HIV-DMls cells, replicates 25, 26, 27", "result": "38.00 and 52.00 and 53.00"},
      {"measurement": "DPSI DNM1L_1", "setting": "chr12:32782465-32782497, mean PSI 5193892 minus DMSO, n=3, P Value 0.447", "result": -5.67, "unit": "%"},
      {"measurement": "PSI NAP1L1_1", "setting": "chr12:74747418-74747520, HeLa rtTA-HIV-DMls cells, replicates 25, 26, 27", "result": "76.00 and 78.00 and 83.00"},
      {"measurement": "DPSI NAP1L1_1", "setting": "chr12:74747418-74747520, mean PSI 5193892 minus DMSO, n=3, P Value 0.123", "result": -5.67, "unit": "%"},
      {"measurement": "PSI NAP1L1_1", "setting": "chr12:74748956-74749041, HeLa rtTA-HIV-DMls cells, replicates 25, 26, 27", "result": "76.00 and 75.00 and 79.00"},
      {"measurement": "DPSI NAP1L1_1", "setting": "chr12:74748956-74749041, mean PSI 5193892 minus DMSO, n=3, P Value 0.018", "result": -7.00, "unit": "%"},
      {"measurement": "PSI MVK_1", "setting": "chr12:108501990-108502134, HeLa rtTA-HIV-DMls cells, replicates 25, 26, 27", "result": "78.00 and 100.00 (2×)"},
      {"measurement": "DPSI MVK_1", "setting": "chr12:108501990-108502134, mean PSI 5193892 minus DMSO, n=3, P Value 0.179", "result": 16.00, "unit": "%"},
      {"measurement": "PSI MVK_1", "setting": "chr12:108503583-108503738, HeLa rtTA-HIV-DMls cells, replicates 25, 26, 27", "result": "64.00 and 74.00 and 45.00"},
      {"measurement": "DPSI MVK_1", "setting": "chr12:108503583-108503738, mean PSI 5193892 minus DMSO, n=3, P Value 0.477", "result": 8.33, "unit": "%"},
      {"measurement": "PSI RAN_1", "setting": "chr12:129923082-129923127, HeLa rtTA-HIV-DMls cells, replicates 25, 26, 27", "result": "93.00 (2×) and 94.00"},
      {"measurement": "DPSI RAN_1", "setting": "chr12:129923082-129923127, mean PSI 5193892 minus DMSO, n=3, P Value 0.018", "result": -4.67, "unit": "%"},
      {"measurement": "PSI MBNL2_1", "setting": "chr13:96807051-96807104, HeLa rtTA-HIV-DMls cells, replicates 25, 26, 27", "result": "11.00 and 30.00 and 29.00"},
      {"measurement": "DPSI MBNL2_1", "setting": "chr13:96807051-96807104, mean PSI 5193892 minus DMSO, n=3, P Value 0.187", "result": 10.33, "unit": "%"}
    ]}
  ]
}
